# Tests used:
# Format in all cases: in vivo
# [1] = tested on: barnyardgrass (Echinochloa crus-galli); assay: Test A preemergence soil spray, visual injury rating 0-100; settings: 10 days
# Outline: (§1)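 Directed preemergence spray onto seeded soil or postemergence spray onto 2-10 cm plants (loam plus sand); compound carried in surfactant-containing non-phytotoxic solvent. Injury rated by eye after 10 d greenhouse growth; 0 = no effect, 100 = complete control.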
# [2] = tested on: blackgrass (Alopecurus myosuroides); assay: as above; settings: 10 days
# Outline: as §1
# corn (Zea mays) [3] = assay: as above; settings: 10 days
# Outline: as §1
# [4] = tested on: green foxtail (Setaria viridis); assay: as above; settings: 10 days
# Outline: as §1
# kochia (Bassia scoparia) [5] = assay: as above; settings: 10 days
# Outline: as §1
# [6] = tested on: oat, wild (wild oat, Avena fatua); assay: as above; settings: 10 days
# Outline: as §1
# [7] = tested on: palmer (palmer amaranth, palmer pigweed, Amaranthus palmeri); assay: as above; settings: 10 days
# Outline: as §1
# [8] = tested on: ragweed (common ragweed, Ambrosia artemisiifolia); assay: as above; settings: 10 days
# Outline: as §1
# [9] = tested on: ryegrass, Italian (italian ryegrass, Lolium multiflorum); assay: as above; settings: 10 days
# Outline: as §1
# soybean (Glycine max) [10] = assay: as above; settings: 10 days
# Outline: as §1
# [11] = tested on: wheat (Triticum aestivum); assay: as above; settings: 10 days
# Outline: as §1
# [12] = tested on: barnyardgrass (Echinochloa crus-galli); assay: Test A postemergence application, visual injury rating 0-100; settings: for Barnyardgrass plant response rating (0 to 100 scale): Postemergence
# Outline: as §1
# [13] = tested on: blackgrass (Alopecurus myosuroides); assay: as above; settings: for Blackgrass plant response rating (0 to 100 scale): Postemergence
# Outline: as §1
# corn (Zea mays) [14] = assay: as above; settings: for Corn plant response rating (0 to 100 scale): Postemergence
# Outline: as §1
# [15] = tested on: galium (catchweed bedstraw, Galium aparine); assay: as above; settings: for Galium plant response rating (0 to 100 scale): Postemergence
# Outline: as §1
# [16] = tested on: green foxtail (Setaria viridis); assay: as above; settings: for Foxtail, Green plant response rating (0 to 100 scale): Postemergence
# Outline: as §1
# [17] = tested on: horseweed (Erigeron canadensis); assay: as above; settings: for Horseweed plant response rating (0 to 100 scale): Postemergence
# Outline: as §1
# kochia (Bassia scoparia) [18] = assay: as above; settings: for Kochia plant response rating (0 to 100 scale): Postemergence
# Outline: as §1
# [19] = tested on: oat, wild (wild oat, Avena fatua); assay: as above; settings: for Oat, Wild plant response rating (0 to 100 scale): Postemergence
# Outline: as §1
# [20] = tested on: palmer (palmer amaranth, palmer pigweed, Amaranthus palmeri); assay: as above; settings: for Amaranth, Palmer / Pigweed, Palmer plant response rating (0 to 100 scale): 0 is no effect, 100 is complete control
# Outline: as §1
# [21] = tested on: ragweed (common ragweed, Ambrosia artemisiifolia); assay: as above; settings: for Ragweed plant response rating (0 to 100 scale): Postemergence
# Outline: as §1
# [22] = tested on: ryegrass, Italian (italian ryegrass, Lolium multiflorum); assay: as above; settings: for Ryegrass, Italian plant response rating (0 to 100 scale): Postemergence
# Outline: as §1
# soybean (Glycine max) [23] = assay: as above; settings: for Soybean plant response rating (0 to 100 scale): Postemergence
# Outline: as §1
# [24] = tested on: wheat (Triticum aestivum); assay: as above; settings: for Wheat plant response rating (0 to 100 scale): Postemergence
# Outline: as §1
# [25] = tested on: barnyardgrass (Echinochloa crusgalli); assay: Test B flooded paddy test, visual plant response rating 0-100; settings: 250 g ai/ha, Flood, applied to paddy water, evaluated after 13 days
# Outline: (§2)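 Each species was raised to two leaves before flooding to a 3 cm depth and dosing the water with compound. Injury was assessed by eye after 13 days under greenhouse conditions.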
# [26] = tested on: ducksalad (Heteranthera limosa); assay: as above; settings: 250 g ai/ha, Flood, applied to paddy water, evaluated after 13 days
# Outline: as §2
# rice (Oryza sativa) = assay: as above; settings: 250 g ai/ha, Flood, applied to paddy water, evaluated after 13 days
# Outline: as §2
# [27] = tested on: sedge, umbrella (small-flower umbrella sedge, Cyperus difformis); assay: as above; settings: 250 g ai/ha, Flood, applied to paddy water, evaluated after 13 days
# Outline: as §2
# [28] = 62 g ai/ha, 0 = no effect, 100 = complete control
# [29] = 62 g ai/ha, postemergence, 10 days, 0 = no effect, 100 = complete control
# [30] = 16 g ai/ha, greenhouse 10 days, 0 no effect, 100 complete control
# [31] = 125 g ai/ha, 0 = no effect, 100 = complete control
# [32] = 500 g ai/ha, 0 = no effect, 100 = complete control
# [33] = 125 g ai/ha, 10 days, 0 is no effect, 100 is complete control
# [34] = 500 g ai/ha, 10 days, 0 is no effect, 100 is complete control
compound,measurement,setting,value
CC1(C(=O)NC2CC(C(=O)O)C2)CN(c2cc(F)cc(F)c2)C(=O)O1 (centres unmarked) [Compound 119],Barnyardgrass plant response rating,"[1]; 16 g ai/ha, 0 to 100 scale",0
same,Barnyardgrass plant response rating (0-100),[1]; [28],80
same,Blackgrass plant response rating,"[2]; 16 g ai/ha, 0 to 100 scale",40
same,Blackgrass plant response rating (0-100),[2]; [28],80
same,Corn plant response rating,"corn (Zea mays) [3]; 16 g ai/ha, 0 to 100 scale",20
same,Corn plant response rating (0-100),corn (Zea mays) [3]; [28],70
same,"Foxtail, Green plant response rating","[4]; 16 g ai/ha, 0 to 100 scale",20
same,"Foxtail, Green plant response rating (0-100)",[4]; [28],90
same,Kochia plant response rating,"kochia (Bassia scoparia) [5]; 16 g ai/ha, 0 to 100 scale",0
same,Kochia plant response rating (0-100),kochia (Bassia scoparia) [5]; [28],80
same,"Oat, Wild plant response rating","[6]; 16 g ai/ha, 0 to 100 scale",90
same,"Oat, Wild plant response rating (0-100)",[6]; [28],90
same,"Pigweed, Palmer plant response rating","[7]; 16 g ai/ha, 0 to 100 scale",10
same,"Pigweed, Palmer plant response rating (0-100)",[7]; [28],10
same,Ragweed plant response rating,"[8]; 16 g ai/ha, 0 to 100 scale",0
same,Ragweed plant response rating (0-100),[8]; [28],0
same,"Ryegrass, Italian plant response rating","[9]; 16 g ai/ha, 0 to 100 scale",30
same,"Ryegrass, Italian plant response rating (0-100)",[9]; [28],80
same,Soybean plant response rating,"soybean (Glycine max) [10]; 16 g ai/ha, 0 to 100 scale",0
same,Soybean plant response rating (0-100),soybean (Glycine max) [10]; [28],20
same,Wheat plant response rating,"[11]; 16 g ai/ha, 0 to 100 scale",10
same,Wheat plant response rating (0-100),[11]; [28],60
same,Barnyardgrass plant response rating (0-100),[12]; [29],100
same,Barnyardgrass plant response rating (0 to 100 scale),[12]; [30],70
same,Blackgrass plant response rating (0-100),[13]; [29],100
same,Blackgrass plant response rating (0 to 100 scale),[13]; [30],80
same,Corn plant response rating (0-100),corn (Zea mays) [14]; [29],100
same,Corn plant response rating (0 to 100 scale),corn (Zea mays) [14]; [30],100
same,Galium plant response rating (0-100),[15]; [29],60
same,Galium plant response rating (0 to 100 scale),[15]; [30],20
same,"Foxtail, Green plant response rating (0-100)",[16]; [29],90
same,"Foxtail, Green plant response rating (0 to 100 scale)",[16]; [30],70
same,Horseweed plant response rating (0-100),[17]; [29],0
same,Horseweed plant response rating (0 to 100 scale),[17]; [30],0
same,Kochia plant response rating (0-100),kochia (Bassia scoparia) [18]; [29],80
same,Kochia plant response rating (0 to 100 scale),kochia (Bassia scoparia) [18]; [30],10
same,"Oat, Wild plant response rating (0-100)",[19]; [29],90
same,"Oat, Wild plant response rating (0 to 100 scale)",[19]; [30],40
same,"Pigweed, Palmer plant response rating (0-100)",[20]; [29],50
same,"Pigweed, Palmer plant response rating (0 to 100 scale)","[20]; Postemergence, 16 g ai/ha, greenhouse 10 days, 0 no effect, 100 complete control",20
same,Ragweed plant response rating (0-100),[21]; [29],20
same,Ragweed plant response rating (0 to 100 scale),[21]; [30],0
same,"Ryegrass, Italian plant response rating (0-100)",[22]; [29],60
same,"Ryegrass, Italian plant response rating (0 to 100 scale)",[22]; [30],0
same,Soybean plant response rating (0-100),soybean (Glycine max) [23]; [29],80
same,Soybean plant response rating (0 to 100 scale),soybean (Glycine max) [23]; [30],50
same,Wheat plant response rating (0-100),[24]; [29],90
same,Wheat plant response rating (0 to 100 scale),[24]; [30],80
same,"Plant response rating, Barnyardgrass (0 to 100 scale, 0 is no effect and 100 is complete control)",[25],0
same,"Plant response rating, Ducksalad (0 to 100 scale, 0 is no effect and 100 is complete control)",[26],0
same,"Plant response rating, Rice (0 to 100 scale, 0 is no effect and 100 is complete control)",rice (Oryza sativa),0
same,"Plant response rating, Sedge, Umbrella (0 to 100 scale, 0 is no effect and 100 is complete control)",[27],0
CC(C)OC(=O)C1C=CC(NC(=O)C2(C)CN(c3cc(Cl)cc(Cl)c3)C(=O)O2)C1 (centres unmarked) [Compound 43],Barnyardgrass plant response rating (0 to 100 scale),[1]; [31],100
same,Barnyardgrass plant response rating (0 to 100 scale),[1]; [32],100
same,Blackgrass plant response rating (0 to 100 scale),[2]; [31],90
same,Blackgrass plant response rating (0 to 100 scale),[2]; [32],100
same,Corn plant response rating (0 to 100 scale),corn (Zea mays) [3]; [31],80
same,Corn plant response rating (0 to 100 scale),corn (Zea mays) [3]; [32],90
same,"Foxtail, Green plant response rating (0 to 100 scale)",[4]; [31],90
same,"Foxtail, Green plant response rating (0 to 100 scale)",[4]; [32],100
same,Kochia plant response rating (0 to 100 scale),kochia (Bassia scoparia) [5]; [31],80
same,Kochia plant response rating (0 to 100 scale),kochia (Bassia scoparia) [5]; [32],90
same,"Oat, Wild plant response rating (0 to 100 scale)",[6]; [31],90
same,"Oat, Wild plant response rating (0 to 100 scale)",[6]; [32],90
same,"Amaranth, Palmer plant response rating (0 to 100 scale)",[7]; [31],100
same,"Amaranth, Palmer plant response rating (0 to 100 scale)",[7]; [32],100
same,Ragweed plant response rating (0 to 100 scale),[8]; [31],30
same,Ragweed plant response rating (0 to 100 scale),[8]; [32],80
same,"Ryegrass, Italian plant response rating (0 to 100 scale)",[9]; [31],90
same,"Ryegrass, Italian plant response rating (0 to 100 scale)",[9]; [32],90
same,Soybean plant response rating (0 to 100 scale),soybean (Glycine max) [10]; [31],40
same,Soybean plant response rating (0 to 100 scale),soybean (Glycine max) [10]; [32],60
same,Wheat plant response rating (0 to 100 scale),[11]; [31],90
same,Wheat plant response rating (0 to 100 scale),[11]; [32],90
same,Barnyardgrass plant response rating (0 to 100 scale),[12]; [33],100
same,Barnyardgrass plant response rating (0 to 100 scale),[12]; [34],100
same,Blackgrass plant response rating (0 to 100 scale),[13]; [33],100
same,Blackgrass plant response rating (0 to 100 scale),[13]; [34],100
same,Corn plant response rating (0 to 100 scale),corn (Zea mays) [14]; [33],100
same,Corn plant response rating (0 to 100 scale),corn (Zea mays) [14]; [34],100
same,Galium plant response rating (0 to 100 scale),[15]; [33],70
same,Galium plant response rating (0 to 100 scale),[15]; [34],70
same,"Foxtail, Green plant response rating (0 to 100 scale)",[16]; [33],90
same,"Foxtail, Green plant response rating (0 to 100 scale)",[16]; [34],90
same,Horseweed plant response rating (0 to 100 scale),[17]; [33],60
same,Horseweed plant response rating (0 to 100 scale),[17]; [34],80
same,Kochia plant response rating (0 to 100 scale),kochia (Bassia scoparia) [18]; [33],80
same,Kochia plant response rating (0 to 100 scale),kochia (Bassia scoparia) [18]; [34],80
same,"Oat, Wild plant response rating (0 to 100 scale)",[19]; [33],90
same,"Oat, Wild plant response rating (0 to 100 scale)",[19]; [34],90
same,"Amaranth, Palmer / Pigweed, Palmer plant response rating (0 to 100 scale)","[20]; Postemergence, 125 g ai/ha, 10 days",100
same,"Amaranth, Palmer / Pigweed, Palmer plant response rating (0 to 100 scale)","[20]; Postemergence, 500 g ai/ha, 10 days",100
same,Ragweed plant response rating (0 to 100 scale),[21]; [33],60
same,Ragweed plant response rating (0 to 100 scale),[21]; [34],80
same,"Ryegrass, Italian plant response rating (0 to 100 scale)",[22]; [33],90
same,"Ryegrass, Italian plant response rating (0 to 100 scale)",[22]; [34],90
same,Soybean plant response rating (0 to 100 scale),soybean (Glycine max) [23]; [33],80
same,Soybean plant response rating (0 to 100 scale),soybean (Glycine max) [23]; [34],80
same,Wheat plant response rating (0 to 100 scale),[24]; [33],90
same,Wheat plant response rating (0 to 100 scale),[24]; [34],90
same,"Plant response rating, Barnyardgrass (0 to 100 scale, 0 is no effect and 100 is complete control)",[25],85
same,"Plant response rating, Ducksalad (0 to 100 scale, 0 is no effect and 100 is complete control)",[26],90
same,"Plant response rating, Rice (0 to 100 scale, 0 is no effect and 100 is complete control)",rice (Oryza sativa),20
same,"Plant response rating, Sedge, Umbrella (0 to 100 scale, 0 is no effect and 100 is complete control)",[27],95

# From patent US20260285850A1, “SUBSTITUTED OXAZOLIDINONES AND IMIDAZOLINONES AS HERBICIDES” (FMC CORPORATION, priority 2023, published 2026)
